Molecules are shown by their SMILES. Read-outs that look alike come from different tables or passages of the source.

Series [1] has as its system N-methyl-N-nitrosourea-induced mammary carcinogenesis. Particulars: in vivo; cited from earlier work.
For series [2] the following is noted: male rats, subchronic administration, cited from earlier work.
A short description of series [3]: Subchronic administration to male rats, thyroid weight. The series is classed as in vivo. Particulars: mammals; iodide vs molecular iodine.
Series [4] can be described thus: Iodination of arachidonic acid by molecular iodine with additional iodate (thiosulfate titration, Example 3). The series is classed as physicochemical. As for the experimental part:
A stock solution of 10 mg/ml arachidonic acid in ethanol was prepared. […] A control vial was prepared that had no arachidonic acid. An iodate/iodide solution was prepared separately by adding NaIO3 (Sigma-Aldrich, St. Louis, Mo.; part number […]) and NaI (Sigma-Aldrich, St.

Series [5] in a line: Iodination of arachidonic acid by molecular iodine (thiosulfate titration, Example 1). The series is classed as physicochemical. Particulars: 0.01N sodium thiosulfate titration. As for the experimental part:
A stock solution of 10 mg/ml arachidonic acid in ethanol was prepared. […] A control vial was prepared that had no arachidonic acid.
An iodate/iodide solution was prepared separately by adding NaIO3 (Sigma-Aldrich, St. Louis, Mo.; part number S4007-500G) and NaI (Sigma-Aldrich, St. Louis, Mo.; part number […]) to final concentrations of 3.16 and 20.55 mM, respectively, in 0.64M sodium carbonate in water.
Vials were then titrated with 0.01N sodium thiosulfate solution until the samples went from dark blue to colorless.
Since the oxidation of iodide after acidification is diffusion controlled, the reaction of iodate with iodide is essentially instantaneous and five moles of iodide reacts with each mole of iodate to form 3 moles of molecular iodine.
The ratio of iodide to iodate used in this experiment insured that there was unreacted […] present in the solution after acidification with HCl.

For series [6] the following is noted: cited from earlier work.
The procedure of series [7]: An iodate/iodide solution was prepared separately by adding sodium iodate (Sigma-Aldrich, St. Louis, Mo.; part number S4007-500G) and sodium iodide (Sigma Aldrich, St. Louis, Mo.; part number 383112-100G) to final concentrations of 3.16 and 20.55 mM, respectively, in 0.64M sodium carbonate in water. One mL of the iodate/iodide solution was then added to the vials followed by 100 μl of 0.5% starch indicator.
This additional sodium iodate was added to provide additional oxidant to re-oxidize any iodide that might be formed by the iodination of arachidonic acid.
Two mL of 1N HCl was added and a visual observation of the samples was recorded. Vials were then titrated with 0.01N sodium thiosulfate solution until the samples went from dark blue to colorless.

On to `II` [molecular iodine], for which the “formation of carcinogen induced tumors” value in series [1] was “inhibits”. The thyroid weight entry in series [2] (even at 100 mg/kg) was “did not affect thyroid weight”.
As to `I` [iodide], the “formation of carcinogen induced tumors” value in series [1] is given as “not”. Also, the “concentration affecting thyroid weight, less than for a comparable effect from molecular iodine” value in series [3] worked out at 10 fold. For the same molecule, the thyroid weight result in series [2] (10 mg/kg) was “increased”.
In the case of `CCCCC/C=C\C/C=C\C/C=C\C/C=C\CCCC(=O)O` [Arachidonic Acid, (5Z,8Z,11Z,14Z)-5,8,11,14-eicosatetraenoic acid], the “decrease of molecular iodine observed from Sample 3 to Sample 4” value in series [4] (1 mg arachidonic acid, additional iodate) is on record as 0.50 ∞mol. This molecule also showed a molecular iodine reacted with in series [4] (one mg arachidonic acid, Sample 2 vs Sample 1, unit of the source corrected) of 1 µmol. The Thiosulfate in series [5] (0.3 mg arachidonic acid) was 1.75 mL; in series [5] (1.0 mg arachidonic acid), 1.62 mL. Further, in series [6] (bodybuilders, 1500 mg), the systemic inflammation result is listed as “may reduce systemic inflammation”. The “toxicity or safety risk” value in series [6] (daily oral administration of up to 1500 mg) is “no toxicity or safety risk”. Moreover, the carcinogenicity result in series [6] (in vivo) is reported as “not carcinogenic”.
For the molecule `C/C=C/C=C/C(=O)O` [Sorbic Acid, sorbic acid, reference compound], the Thiosulfate stood at 1.45 mL in series [7] (sample 2: 1 mg sorbic acid, no additional NaIO3); 1.60 mL in series [7] (sample 4: 1 mg sorbic acid, additional NaIO3 188 ∝g); 1.70 mL in series [4] (sample 2: 1 mg acid, no additional NaIO3); 2.10 mL in series [4] (sample 4: 1 mg acid, additional NaIO3 188 ∝g).
